Assay results as given in patent publication US8003331B2, “Method for identifying target protein of drug and method for screening therapeutic agent for diabetes using the target protein” (Astellas Pharma Inc., priority 2005, dated 2011).
Entries after “also recorded” stand apart in the source; their conditions may differ.

Experiments:
[1] = target: T1, ATP5B (Rattus norvegicus, UniProt P10719); test: GST-HSPA4 pull-down from L 6 cell extract, silver staining and mass spectrum identification; type: binding; conditions: phenformin 50 nM added vs no addition
T1 construct: a rat skeletal muscle-derived cell, L 6 cell (ATCC); endogenous in cells; host or cells: L6 (rat skeletal muscle)
Text: Using the aforementioned method shown in Example 2(2), attempt was made to screen the target protein of biguanide whose direct target protein has been unclear in spite of its significant drug effect as an agent for treating diabetes. Firstly, a rat skeletal muscle-derived cell, L 6 cell (ATCC), was suspended in a minimum essential medium (αMEM, Invitrogen) containing 10% fetal calf serum (FCS) and cultured on a collagen-coated plate of 15 cm in diameter (Asahi Techno Glass) until reaching the confluent state. The resulting cells were washed twice with 15 ml of ice-cooled phosphate buffer (PBS) and then lysed by adding 2.0 ml of the aforementioned buffer A, and the cell extract was collected using a scraper. […] After 1 hour of shaking at 4° C., the protein binding to the GST-HSPA4 on beads was co-precipitated by centrifugation. In this connection, in order to prevent drop out of the molecular chaperone protein from the beads, the molecular chaperone protein and beads were used by chemically crosslinking them in advance by a conventionally known method. […] As a result, a large protein band of about 60 kDa, in which its amount to bind to the molecular chaperone protein is reduced at the time of adding phenformin in comparison with the case of no addition, was detected. […]

[2] = target: T2, Asp 295 Val mutation type ATP5B (Homo sapiens, UniProt P06576, D295V); test: GST-DHFR / MTX-phenformin pull-down, Asp 295 Val mutation type ATP5B; type: binding; conditions: pull-down assay as Example 5(4)
T2 construct: a complete length cDNA coding for an Asp 295 Val mutation type ATP5B was obtained; made in house

[3] = target: T3, human ATP5B (Homo sapiens, UniProt P06576); test: GST-DHFR / MTX-phenformin GST pull-down of 35S-labeled ATP5B; type: binding; conditions: 10 μM MTX-phenformin fixed to GST-DHFR; wild type ATP5B
T3 construct: an attempt was made to amplify complete length cDNA of human ATP5B; made in house; host or cells: cell-free: TNT Quick Coupled Transcription/Translation System (Promega) from pcDNA-ATP5B; GST-DHFR from E. coli BL21
Procedure: Promega) and 0.74 MBq of a radioisotope (redivue Pro-mix L-[35S]; Amersham) and in accordance with the protocols attached thereto. A 15 μl portion of this human ATP5B protein preparation liquid and 1 μg for each of the GST protein or GST-DHFR, purified on the glutathione Sepharose beads, were mixed and shaken at 4° C. for 1 hour after adding 0.3 ml of buffer A thereto. Thereafter, the protein binding to the GST protein or GST-DHFR on beads was co-precipitated by centrifugation. After repeating this operation 4 times, proteins in the precipitate were separated by SDS polyacrylamide gel electrophoresis in accordance with a conventionally known method, and the protein bound to the probe was detected by an autoradiography.

[4] = target: T3, human ATP5B; test: competitive inhibition of binding of ATP5B and MTX-phenformin; conditions: MTX-phenformin 10 μM; free phenformin 10 μM; compounds A and B 'addition of 10'
[5] = target: T4, Glu 175 Val mutation type ATP5B (Homo sapiens, UniProt P06576, E175V); test: GST-DHFR / MTX-phenformin pull-down, Glu 175 Val mutation type ATP5B; type: binding; conditions: pull-down assay as Example 5(4)
T4 construct: a complete length cDNA of about 1600 base pairs coding for a Glu 175 Val mutation type ATP5B; made in house
Text: Using the aforementioned expression plasmid pcDNA-ATP5B as the template and using respective sets of primers of the nucleotide sequences represented by SEQ ID NO:87 and SEQ ID NO:81, and SEQ ID NO:80 and SEQ ID NO:88, two DNA fragments of about 530 base pairs of 5′-side and about 1080 base pairs of 3′-side of cDNA having a mutation in which the 175th position of amino acid, Glu, of human ATP5B was replaced by Val were amplified by PCR. All of the PCR reaction, cloning stem and determination of nucleotide sequence were the same as the methods shown in Example 5(1). Using an equivalent mixture of the thus obtained two PCR products as the template, PCR was carried out using the primers represented by SEQ ID NO:80 and SEQ ID NO:81 this time, thereby obtaining a complete length cDNA of about 1600 base pairs coding for a Glu 175 Val mutation type ATP5B. The thus obtained cDNA fragment was cloned into an expression vector (pcDNA3.1/V5-His-TOPO; Invitrogen), and then the nucleotide sequence inserted into the vector was identified using the synthetic primer represented by SEQ ID NO:90 to confirm that the Glu 175 Val mutation was formed in ATP5B. The thus obtained expression plasmid is referred to as pcDNA-ATP5B(E175V) hereinafter. […]

[6] = test system: AMPK; test: AMPK activation ability detection in HeLa S3 cell (anti-phospho AMPK western blotting); type: cell-based, human; conditions: phenformin 1 mM, 1 hr
Procedure: This expression plasmid pcDNA-LKB1 and the pcDNA-ATP5B prepared in the aforementioned Example 5(1) or an empty vector (pcDNA3.1) (Invitrogen) were transferred into HeLa S3 cell. The HeLa S3 cell (ATCC) was cultured in a 6 well culture plate (35 mm in well diameter) until it reached a state of 70% confluent, by adding 2 ml of a minimum essential medium DMEM (Gibco) containing 10% fetal bovine serum (Sigma) to each well of the culture plate. The medium was substituted by 1 ml per well of a serum-free medium OPTI MEM I (Invitrogen), and 3.0 μg/well of each of the empty vector (pcDNA3.1), pcDNA-LKB1 and pcDNA-ATP5B was transiently transferred using Lipofect amine 2000 (Invitrogen). After 12 hours of the culturing, this was substituted by 2 ml/well of DMEM containing 10% of fetal bovine serum from which low molecular substances had been removed by a charcoal treatment, and further cultured for 36 hours. This was further cultured for 1 hour (1 hr) under a condition of adding phenformin (Sigma) to a final concentration of 1 mM or the solvent (DMSO) alone. The medium was discarded, the cells were washed with a phosphate buffer (to be referred to as PBS hereinafter, and then the cells were lysed by adding 0.15 ml of the aforementioned buffer A (however, the NaCl concentration was 150 mM, and various phosphatase inhibitors; 2 mM Na3VO4, 10 mM NaF, 25 mM β-glycerophosphate, 0.2 mM Na2MoO4, 20 nM okadaic acid, were added). The activity of AMPK in the cells was detected at the level of phosphorylation of molecules by a conventionally known SDS electrophoresis and a western blotting which uses an anti-phosphorylation AMPK antibody (Phospho-AMPK-α(Thr172) Antibody, Daiichi Pure Chemicals). In this case, in order to confirm that there is no difference in the amount of protein of AMPKα (an AMPK subunit which undergoes phosphorylation) among samples, a western blotting which uses an anti-AMPKα antibody (Daiichi Pure Chemicals) was simultaneously carried out. […] However, in the cell in which human ATP5B was expressed by transferring pcDNA-ATP5B, activation of AMPK by phenformin treatment was not found.

amount of about 60 kDa protein band (ATP5B) binding to the molecular chaperone protein [1]: reduced
influence on binding of ATP5B and MTX-phenformin [4]: obstructed
SMILES: [H]/N=C(/N)N/C(=N/[H])NCCc1ccccc1 [phenformin]
binding with Asp 295 Val mutation type ATP5B [2]: not able to confirm the binding; also recorded: disappearance
binding with human ATP5B (band of about 60 kDa, autoradiography) [3]: directly binds; also recorded: able to confirm binding
binding with Glu 175 Val mutation type ATP5B [5]: not able to confirm the binding; also recorded: disappearance
phosphorylation level (activation) of AMPK ([6]; HeLa S3 cell without ATP5B over-expression (empty vector- or pcDNA-LKB1-transferred), concentration of compounds A and B not given): significantly accelerated and activated
activation of AMPK in cell over-expressing human ATP5B ([6]; pcDNA-ATP5B-transferred HeLa S3 cell, metformin 10 mM): not found; also recorded: disappearance
